The record followed here is patent US6825230B2, “Spiro and dispiro 1,2,4-trixolane antimalarials” (Medicines for Malaria Venture MMV, priority 2002, dated 2004).

Test [1] deals with chloroquine-sensitive NF54 strain of P. falciparum. The experiment in a line: In vitro antimalarial semiautomated microdilution assay ([3H]-hypoxanthine incorporation), NF54 strain. It is filed as cell-based, Plasmodium falciparum. The conditions noted are these: Plasmodium falciparum, NF54, 72 h, read-out: IC50 (ng/ml) NF54, chloroquine-sensitive NF54 strain, 72 h incubation. On the procedure: (§1) Various OZ compounds were tested by the semiautomated microdilution assay against intraerythrocytic forms of Plasmodium falciparum derived from asynchronous stock cultures.
(§2) Fifty percent inhibitory concentration (IC50) were estimated by Logit regression analysis.
Background: Dilution methods test growth across graded concentrations, often in twofold steps.

The subject of test [2] is ANKA strain of P. berghei. Nature of the test: Single dose STI in vivo screen in infected mice. Further details: species or system Plasmodium berghei. The conditions noted are these: for Survival (days) 10 mg/kg po: single 10 mg/kg po in 3% ethanol and 7% Tween 80; for Survival (days) 10 mg/kg po / Survival (days) 10 mg/kg SSV po / Survival (days) 10 mg/kg sc: untreated 6-7 days; for Activity (%) 10 mg/kg po: single 10 mg/kg po in 3% ethanol and 7% Tween 80 on day 1 post-infection; for Activity (%) 10 mg/kg po / Activity (%) 10 mg/kg SSV po / Activity (%) 10 mg/kg sc: percent reduction in parasitemia on day 3; for Survival (days) 10 mg/kg SSV po: single 10 mg/kg po in SSV; for Activity (%) 10 mg/kg SSV po: single 10 mg/kg po in standard suspending vehicle (SSV) on day 1 post-infection; for Survival (days) 10 mg/kg sc: single 10 mg/kg sc in 3% ethanol and 7% Tween 80; for Activity (%) 10 mg/kg sc: single 10 mg/kg sc in 3% ethanol and 7% Tween 80 on day 1 post-infection.

Test [3] deals with chloroquine-resistant K1 strain of P. falciparum. The experiment in a line: In vitro antimalarial semiautomated microdilution assay ([3H]-hypoxanthine incorporation), K1 strain. It is filed as cell-based, Plasmodium falciparum. The conditions noted are these: Plasmodium falciparum, K1, 72 h, read-out: IC50 (ng/ml) K1, chloroquine-resistant K1 strain, 72 h incubation. Here is the method:
as §1, §2

The structures appear in SMILES notation. ≈ marks a conversion by molar mass, not a printed value.

Consider `O=[N+]([O-])c1cc(C2(c3ccc(Cl)c([N+](=O)[O-])c3)OOC3(O2)C2CC4CC(C2)CC3C4)ccc1Cl` (centres unmarked) [OZ96, Adamantane-2-spiro-3′-5′,5′-bis(4′-chloro-3′-nitrophenyl)-1′,2′,4′-trioxolane], for which the IC50 in test [1] was > 10 ng/mL. For the same compound, in test [2], the “Survival (days) 10 mg/kg po” value was found to be 5.7 days, the “Activity (%) 10 mg/kg po” value is 12%, the “Survival (days) 10 mg/kg SSV po” value was determined as 5.7 days and the “Activity (%) 10 mg/kg SSV po” value stood at 14%. Moreover, in test [2], the “Survival (days) 10 mg/kg sc” value is recorded as 5.3 days and the “Activity (%) 10 mg/kg sc” value is on record as 19%. Moreover, in test [3], the IC50 was determined as 8.4 ng/mL (≈ 16.6 nM).

With `O=C1c2ccccc2C(=O)N1CC1(c2ccccc2)CCC2(CC1)OOC1(O2)C2CC3CC(C2)CC1C3` (centres unmarked) [OZ97], in test [1], the IC50 stood at 1.8 ng/mL (≈ 3.6 nM). In addition, in test [2], the “Survival (days) 10 mg/kg po” value is listed as 6.7 days, the “Activity (%) 10 mg/kg po” value came out at 59%, the “Survival (days) 10 mg/kg SSV po” value is on record as 5.3 days and the “Activity (%) 10 mg/kg SSV po” value stood at 2%. In addition, in test [2], the “Survival (days) 10 mg/kg sc” value was found to be 7.0 days and the “Activity (%) 10 mg/kg sc” value is 66%. Also, the IC50 in test [3] turned out to be 2.2 ng/mL (≈ 4.4 nM).

In the case of `COC(=O)C1(c2ccccc2)CCC2(CC1)OOC1(O2)C2CC3CC(C2)CC1C3` (centres unmarked) [OZ98], the IC50 in test [1] amounted to 0.9 ng/mL (≈ 2.26 nM). Also, in test [2], the “Survival (days) 10 mg/kg po” value is 6.3 days, the “Activity (%) 10 mg/kg po” value is 72%, the “Survival (days) 10 mg/kg SSV po” value came out at 5.3 days and the “Activity (%) 10 mg/kg SSV po” value is reported as 11%. Also, in test [2], the “Survival (days) 10 mg/kg sc” value amounted to 7.3 days and the “Activity (%) 10 mg/kg sc” value was 77%. In addition, the IC50 in test [3] amounted to 2.3 ng/mL (≈ 5.77 nM).

Turning to `O=C(O)C1(c2ccccc2)CCC2(CC1)OOC1(O2)C2CC3CC(C2)CC1C3` (centres unmarked) [OZ99], the IC50 in test [1] was 27 ng/mL (≈ 70.2 nM). Also, in test [2], the “Survival (days) 10 mg/kg po” value stood at 6.3 days, the “Activity (%) 10 mg/kg po” value is 30%, the “Survival (days) 10 mg/kg SSV po” value came to 5.7 days and the “Activity (%) 10 mg/kg SSV po” value was determined as 40%. Moreover, in test [2], the “Survival (days) 10 mg/kg sc” value is 6.3 days and the “Activity (%) 10 mg/kg sc” value is recorded as 36%. In test [3], the IC50 was determined as 77 ng/mL (≈ 200 nM).

On to `CC(=O)Nc1ccc(S(=O)(=O)N2CCC3(CC2)OOC2(O3)C3CC4CC(C3)CC2C4)cc1` (centres unmarked) [OZ104, Adamantane-2-spiro-3′-8′-[[4-(acetylamino)phenyl]sulfonyl]-1′,2′,4′-trioxa-8′-azaspiro[4.5]decane], for which, in test [1], the IC50 was 0.5 ng/mL (≈ 1.08 nM). Further, in test [2], the “Survival (days) 10 mg/kg po” value amounted to 6.3 days, the “Activity (%) 10 mg/kg po” value was 56%, the “Survival (days) 10 mg/kg SSV po” value is listed as 5.7 days and the “Activity (%) 10 mg/kg SSV po” value amounted to 0%. For the same compound, in test [2], the “Survival (days) 10 mg/kg sc” value came out at 12.0 days and the “Activity (%) 10 mg/kg sc” value is on record as 99.98%. Further, in test [3], the IC50 is 1.4 ng/mL (≈ 3.03 nM).

`COC(=O)c1ccc(C2(c3ccc(C(=O)OC)c(C(=O)OC)c3)OOC3(O2)C2CC4CC(C2)CC3C4)cc1C(=O)OC` (centres unmarked) [OZ106, Adamantane-2-spiro-3′-5′,5′-bis[3′,4′-di(methoxycarbonyl)phenyl]-1′,2′,4′-trioxolane]: in test [1], the IC50 stood at 1.7 ng/mL (≈ 2.93 nM). In test [2], the “Survival (days) 10 mg/kg po” value amounted to 5.3 days, the “Activity (%) 10 mg/kg po” value is recorded as 0/0/0%, the “Survival (days) 10 mg/kg SSV po” value was 5.0 days and the “Activity (%) 10 mg/kg SSV po” value is recorded as 0/0/0%. Moreover, in test [2], the “Survival (days) 10 mg/kg sc” value is listed as 5.3 days and the “Activity (%) 10 mg/kg sc” value is recorded as 0/0/0%. Besides, in test [3], the IC50 turned out to be 2.2 ng/mL (≈ 3.79 nM).

Regarding `O=C(O)c1nccnc1C(=O)N1CCC2(CC1)OOC1(O2)C2CC3CC(C2)CC1C3` (centres unmarked) [OZ109, Adamantane-2-spiro-3′-8′-[(3′-carboxypyrazinyl)carbonyl]-1′,2′,4′-trioxa-8′-azaspiro[4.5]decane], the IC50 in test [1] is 24 ng/mL (≈ 57.8 nM). Moreover, in test [2], the “Survival (days) 10 mg/kg po” value came to 5.7 days, the “Activity (%) 10 mg/kg po” value is listed as 2%, the “Survival (days) 10 mg/kg SSV po” value came to 5.7 days and the “Activity (%) 10 mg/kg SSV po” value came out at 0%. For the same compound, in test [2], the “Survival (days) 10 mg/kg sc” value is 6.3 days and the “Activity (%) 10 mg/kg sc” value came to 24%. Besides, the IC50 in test [3] was 21 ng/mL (≈ 50.5 nM).
